The target in one test is T1, GRK6 (Homo sapiens, UniProt P43250).
T1 construct: endogenous in cells
Nature of the test: Kinobeads two-dose competition binding: GRK6. Conditions: Kinobeads two-dose, Drugmatrix - all 2; read-out: apparent Kd GRK6.

The target of a further test is T2, ACOX1 (Homo sapiens, UniProt Q15067).
T2 construct: endogenous in cells
T2 sequence (Q15067 1-660): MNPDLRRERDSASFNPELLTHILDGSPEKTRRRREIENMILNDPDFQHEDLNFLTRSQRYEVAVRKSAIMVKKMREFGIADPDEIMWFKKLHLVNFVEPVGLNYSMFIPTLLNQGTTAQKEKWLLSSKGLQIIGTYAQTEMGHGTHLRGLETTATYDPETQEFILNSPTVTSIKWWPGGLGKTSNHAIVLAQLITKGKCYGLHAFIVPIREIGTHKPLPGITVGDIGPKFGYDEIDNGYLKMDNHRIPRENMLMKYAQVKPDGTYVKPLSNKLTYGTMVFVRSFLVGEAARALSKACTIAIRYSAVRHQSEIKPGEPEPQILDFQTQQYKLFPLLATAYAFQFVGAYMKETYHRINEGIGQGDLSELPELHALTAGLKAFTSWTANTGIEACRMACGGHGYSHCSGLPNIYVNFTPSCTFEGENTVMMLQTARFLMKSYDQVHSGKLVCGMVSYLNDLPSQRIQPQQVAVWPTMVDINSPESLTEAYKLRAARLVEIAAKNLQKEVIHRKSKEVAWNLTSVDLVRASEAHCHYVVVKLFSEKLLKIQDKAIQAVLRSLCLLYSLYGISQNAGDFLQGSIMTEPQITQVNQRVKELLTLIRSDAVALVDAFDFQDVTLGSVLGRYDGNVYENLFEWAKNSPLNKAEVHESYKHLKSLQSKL
In words: Kinobeads two-dose competition binding: ACOX1.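 For all read-outs here: competition of compounds with immobilized broad-spectrum kinase inhibitor beads in cell lysate at 100 and 1,000 nM, 45 min at 4 °C, bead-bound protein quantified by label-free MS versus DMSO.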 The following applies: for CATDS: sheet CATDS matrix 2, Gene Name ACOX1.

Another test concerns the target T3, AAK1 (Homo sapiens, UniProt Q2M2I8).
T3 construct: to maximize the representation of endogenous proteins; endogenous in cells
In words: Kinobeads two-dose competition binding: AAK1.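 Note: kinobeads competition pulldown from cell lysate, compound preincubated 45 min at 4 °C, bead-bound protein measured by label-free mass spectrometry against DMSO vehicle control.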 The following applies: sheet CATDS matrix 2; Gene Name AAK1.

The target of the next test is T4, ABCD3 (Homo sapiens, UniProt P28288).
T4 construct: endogenous in cells
T4 sequence (P28288 1-659): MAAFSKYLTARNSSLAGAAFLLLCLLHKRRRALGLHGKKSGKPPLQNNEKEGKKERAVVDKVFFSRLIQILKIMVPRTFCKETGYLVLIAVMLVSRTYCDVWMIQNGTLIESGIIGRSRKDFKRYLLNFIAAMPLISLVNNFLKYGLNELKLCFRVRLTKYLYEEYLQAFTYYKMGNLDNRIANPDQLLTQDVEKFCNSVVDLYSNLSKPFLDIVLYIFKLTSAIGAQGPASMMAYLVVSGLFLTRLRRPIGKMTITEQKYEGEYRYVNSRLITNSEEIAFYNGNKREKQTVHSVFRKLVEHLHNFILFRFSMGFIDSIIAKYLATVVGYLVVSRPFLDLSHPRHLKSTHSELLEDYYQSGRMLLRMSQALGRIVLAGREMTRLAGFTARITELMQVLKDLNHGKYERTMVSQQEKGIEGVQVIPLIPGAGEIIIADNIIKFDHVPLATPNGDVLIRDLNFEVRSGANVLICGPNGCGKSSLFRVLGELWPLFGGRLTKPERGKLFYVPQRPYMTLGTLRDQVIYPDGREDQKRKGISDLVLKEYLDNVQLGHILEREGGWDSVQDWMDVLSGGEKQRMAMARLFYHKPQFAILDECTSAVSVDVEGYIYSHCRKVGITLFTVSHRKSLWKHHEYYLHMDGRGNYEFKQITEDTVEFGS
Nature of the test: Kinobeads two-dose competition binding: ABCD3. Conditions: sheet "Kinobeads Drugmatrix - all"; unit inferred; read-out: Kinobeads Drugmatrix - all: apparent Kd, ABCD3.

The target in a further test is ABL1 (Homo sapiens, UniProt P00519). In words: Kinobeads two-dose competition binding: ABL1. Conditions: sheet CATDS matrix 2; Gene Name ABL1.
Sequence of ABL1 (P00519 28-1130 limits assumed): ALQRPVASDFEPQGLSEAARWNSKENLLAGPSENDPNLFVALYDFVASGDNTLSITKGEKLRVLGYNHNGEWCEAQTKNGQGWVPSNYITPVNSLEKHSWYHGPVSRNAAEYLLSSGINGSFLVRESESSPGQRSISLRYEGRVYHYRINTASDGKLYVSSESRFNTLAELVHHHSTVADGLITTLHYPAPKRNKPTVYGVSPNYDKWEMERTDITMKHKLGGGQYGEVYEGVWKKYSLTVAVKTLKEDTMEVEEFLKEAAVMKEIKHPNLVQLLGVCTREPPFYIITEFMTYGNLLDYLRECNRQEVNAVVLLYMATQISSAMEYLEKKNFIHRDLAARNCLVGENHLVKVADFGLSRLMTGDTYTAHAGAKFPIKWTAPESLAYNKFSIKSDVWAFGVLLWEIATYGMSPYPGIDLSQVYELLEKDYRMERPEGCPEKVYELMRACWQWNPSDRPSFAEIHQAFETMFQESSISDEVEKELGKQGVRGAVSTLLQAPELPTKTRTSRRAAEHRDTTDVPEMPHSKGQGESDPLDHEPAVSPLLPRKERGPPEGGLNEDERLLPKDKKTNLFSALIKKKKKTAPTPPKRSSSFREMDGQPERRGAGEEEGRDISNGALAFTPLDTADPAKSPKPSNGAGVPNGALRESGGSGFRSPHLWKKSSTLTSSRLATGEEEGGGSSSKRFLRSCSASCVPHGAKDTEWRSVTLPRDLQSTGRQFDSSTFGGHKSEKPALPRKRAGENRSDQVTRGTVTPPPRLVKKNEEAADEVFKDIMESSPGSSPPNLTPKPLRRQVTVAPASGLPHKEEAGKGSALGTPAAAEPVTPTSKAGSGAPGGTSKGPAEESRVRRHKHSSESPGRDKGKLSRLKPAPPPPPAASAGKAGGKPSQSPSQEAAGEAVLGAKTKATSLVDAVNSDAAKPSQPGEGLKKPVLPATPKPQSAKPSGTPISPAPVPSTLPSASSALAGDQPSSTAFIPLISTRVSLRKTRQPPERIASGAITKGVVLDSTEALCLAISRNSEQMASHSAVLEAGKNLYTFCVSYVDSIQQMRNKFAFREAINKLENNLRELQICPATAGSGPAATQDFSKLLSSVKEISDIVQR
Another test deals with T5, ABL2 (Homo sapiens, UniProt P42684).
T5 construct: endogenous in cells
T5 sequence (P42684 whole entry): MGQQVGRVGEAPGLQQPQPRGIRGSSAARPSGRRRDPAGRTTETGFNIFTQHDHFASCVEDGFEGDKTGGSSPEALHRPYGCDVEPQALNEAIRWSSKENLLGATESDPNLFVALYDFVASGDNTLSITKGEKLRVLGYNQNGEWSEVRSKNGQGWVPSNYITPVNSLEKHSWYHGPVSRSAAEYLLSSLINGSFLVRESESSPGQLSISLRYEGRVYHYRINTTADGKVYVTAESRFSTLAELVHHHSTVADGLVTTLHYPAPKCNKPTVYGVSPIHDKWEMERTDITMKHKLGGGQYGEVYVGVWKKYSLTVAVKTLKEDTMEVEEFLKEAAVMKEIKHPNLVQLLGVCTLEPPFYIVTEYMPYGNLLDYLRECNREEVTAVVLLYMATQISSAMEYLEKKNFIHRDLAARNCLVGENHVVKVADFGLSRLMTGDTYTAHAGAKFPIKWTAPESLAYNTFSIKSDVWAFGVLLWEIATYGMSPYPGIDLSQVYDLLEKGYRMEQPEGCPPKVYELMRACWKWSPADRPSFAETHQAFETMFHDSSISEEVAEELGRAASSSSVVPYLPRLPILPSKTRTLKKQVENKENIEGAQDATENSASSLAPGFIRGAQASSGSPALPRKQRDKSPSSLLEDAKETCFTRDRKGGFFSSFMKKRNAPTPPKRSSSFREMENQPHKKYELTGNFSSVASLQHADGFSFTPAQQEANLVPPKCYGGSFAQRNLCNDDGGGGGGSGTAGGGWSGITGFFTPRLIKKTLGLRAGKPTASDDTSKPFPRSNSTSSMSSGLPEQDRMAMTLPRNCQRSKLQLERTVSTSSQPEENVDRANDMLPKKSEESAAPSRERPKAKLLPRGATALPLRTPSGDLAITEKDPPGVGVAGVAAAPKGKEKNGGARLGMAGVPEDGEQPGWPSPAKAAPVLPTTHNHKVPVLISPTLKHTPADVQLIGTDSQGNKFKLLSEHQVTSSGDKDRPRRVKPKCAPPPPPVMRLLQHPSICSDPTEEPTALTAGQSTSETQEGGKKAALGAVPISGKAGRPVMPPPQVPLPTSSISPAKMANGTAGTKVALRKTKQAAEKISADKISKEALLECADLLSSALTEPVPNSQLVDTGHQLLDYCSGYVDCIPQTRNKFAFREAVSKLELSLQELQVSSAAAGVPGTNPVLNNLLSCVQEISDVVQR
In words: Kinobeads two-dose competition binding: ABL2. Conditions: sheet CATDS matrix 2; Gene Name ABL2.

Another test concerns the target T6, ACAD11 (Homo sapiens, UniProt Q709F0).
T6 construct: endogenous in cells
T6 sequence (Q709F0 1-780): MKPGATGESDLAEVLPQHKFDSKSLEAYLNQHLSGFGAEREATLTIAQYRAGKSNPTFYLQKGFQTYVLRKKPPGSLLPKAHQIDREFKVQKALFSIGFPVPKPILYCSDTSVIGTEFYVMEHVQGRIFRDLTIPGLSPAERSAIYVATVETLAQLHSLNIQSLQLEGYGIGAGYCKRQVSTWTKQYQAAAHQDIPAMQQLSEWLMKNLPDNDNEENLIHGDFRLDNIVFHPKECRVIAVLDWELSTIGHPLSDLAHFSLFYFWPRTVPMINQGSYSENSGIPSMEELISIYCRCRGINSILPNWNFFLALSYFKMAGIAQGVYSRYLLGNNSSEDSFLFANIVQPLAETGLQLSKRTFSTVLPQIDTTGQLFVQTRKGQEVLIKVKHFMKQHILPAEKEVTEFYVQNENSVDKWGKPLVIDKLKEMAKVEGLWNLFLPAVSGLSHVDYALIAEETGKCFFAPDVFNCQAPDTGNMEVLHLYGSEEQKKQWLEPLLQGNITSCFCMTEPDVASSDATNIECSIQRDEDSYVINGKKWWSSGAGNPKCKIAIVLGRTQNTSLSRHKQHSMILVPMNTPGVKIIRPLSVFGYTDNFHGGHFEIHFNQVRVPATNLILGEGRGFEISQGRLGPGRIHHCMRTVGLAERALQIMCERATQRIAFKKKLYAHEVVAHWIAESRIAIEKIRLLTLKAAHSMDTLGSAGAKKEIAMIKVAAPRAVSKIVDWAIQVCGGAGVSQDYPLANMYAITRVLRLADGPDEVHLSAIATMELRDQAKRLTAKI
In words: Kinobeads two-dose competition binding: ACAD11. Conditions: sheet CATDS matrix 2; Gene Name ACAD11.

For a further test, the target named is T7, EPHB6 (Homo sapiens, UniProt O15197).
T7 construct: to maximize the representation of endogenous proteins; endogenous in cells
T7 sequence (O15197 32-1021): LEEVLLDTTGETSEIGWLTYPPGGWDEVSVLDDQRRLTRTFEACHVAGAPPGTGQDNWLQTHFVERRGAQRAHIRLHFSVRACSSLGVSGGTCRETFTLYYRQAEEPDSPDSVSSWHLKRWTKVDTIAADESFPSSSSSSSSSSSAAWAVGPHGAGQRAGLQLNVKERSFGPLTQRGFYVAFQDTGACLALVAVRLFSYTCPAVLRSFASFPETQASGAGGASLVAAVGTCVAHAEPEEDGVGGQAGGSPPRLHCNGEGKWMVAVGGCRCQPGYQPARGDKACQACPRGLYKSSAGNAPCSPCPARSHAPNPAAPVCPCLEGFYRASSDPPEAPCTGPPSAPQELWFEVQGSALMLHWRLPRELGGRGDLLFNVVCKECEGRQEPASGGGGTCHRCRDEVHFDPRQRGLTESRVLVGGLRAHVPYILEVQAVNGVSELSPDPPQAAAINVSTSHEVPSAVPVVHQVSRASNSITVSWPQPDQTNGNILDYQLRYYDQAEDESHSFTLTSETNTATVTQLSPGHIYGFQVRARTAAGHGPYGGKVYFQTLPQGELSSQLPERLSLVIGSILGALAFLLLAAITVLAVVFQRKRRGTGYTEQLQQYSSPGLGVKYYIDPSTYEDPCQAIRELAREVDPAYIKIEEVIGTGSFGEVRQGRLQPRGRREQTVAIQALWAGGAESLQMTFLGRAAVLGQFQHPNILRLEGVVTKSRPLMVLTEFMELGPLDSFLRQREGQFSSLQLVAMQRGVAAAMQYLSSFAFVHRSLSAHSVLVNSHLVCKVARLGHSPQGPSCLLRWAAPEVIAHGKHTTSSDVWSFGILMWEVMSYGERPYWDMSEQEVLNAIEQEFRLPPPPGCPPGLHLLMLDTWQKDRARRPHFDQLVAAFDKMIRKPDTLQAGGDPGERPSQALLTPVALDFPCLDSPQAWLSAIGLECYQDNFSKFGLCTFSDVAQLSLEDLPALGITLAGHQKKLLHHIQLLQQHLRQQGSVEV
In words: Kinobeads two-dose competition binding: EPHB6. An excerpt: Briefly, Kinobeads comprise seven broad-spectrum small molecule kinase inhibitors immobilized on Sepharose beads. […]. Compounds of interest are set to compete for target protein binding with Kinobeads in the lysate and the amount of a given protein bound to Kinobeads in the presence of a compound can be quantified relative to a dimethylsulfoxide (DMSO) vehicle control by label-free mass spectrometry. This assay measures the physical interaction of a compound with thousands of endogenous proteins in parallel and, when systematically increasing the concentration of competitor, enables the calculation of an apparent interaction constant ( Kdapp ) for each compound and protein.
Kinobeads pulldown experiments were performed as described previously[13],[14],[17] with minor modification. […] The protein concentration was adjusted to 5 mg ml^−1. Kinase inhibitors were spiked into 0.5 ml of cell lysate at final concentrations of 100 and 1,000 nM (or DMSO, 0.3, 1, 3, 10, 30, 100, 300 and 1,000 nM for full dose experiments). […] Lysates were incubated for 45 min at 4 °C. Subsequently, lysates were incubated with Kinobeads ε (17.5 µl of settled beads) for 30 min at 4 °C. To assess the degree of protein depletion from the lysates by Kinobeads, the flow through of the DMSO control was recovered for a pulldown of pulldown experiment where the lysate was incubated a second time with fresh Kinobeads. Beads were washed in three steps with buffer containing 0.4%, 0.2% and no IGEPAL. Bound proteins were reduced with 50 mM DTT in 8 M Urea, 40 mM Tris-HCl pH 7.4 for 30 min at room temperature. After alkylation with 55 mM chloroacetamide, the urea concentration was reduced to 1–2 M and proteins were digested with trypsin. Acidified peptides were desalted and concentrated using SepPak tC18 µEluation plates (Waters). Samples were frozen, dried by vacuum centrifugation and stored at −20 °C.
Each kinase inhibitor was processed together with all DMSO controls of the same plate. Additionally, each search was supplemented with five high quality DMSO controls for consistent peptide identification and protein grouping. The resultant file (proteinGroups.txt) was used for subsequent filtering, normalization, data visualization and target annotation that was automatically performed by a data processing pipeline built in house that used R (including the ‘drc’ and ‘heatmap’ packages). First, reverse hits, potential contaminants and not quantified proteins in the DMSO control samples were discarded. Protein raw and label-free quantification intensities were normalized to the median DMSO control intensity to obtain relative residual binding intensities for each protein group at every inhibitor concentration and standard deviations of the DMSO control intensity were calculated. IC50 values were estimated based on the following equation IC50=I×100−inhibition/inhibition where [I] is the inhibitor concentration that was used for IC50 calculation and ‘inhibition’ the relative residual binding intensity. […]. Estimated Kdapp values were then calculated by multiplying the estimated IC50 values with a protein-dependent correction factor that was limited to a maximum value of one. The correction factor accounts for the depletion of a target protein from the lysate by Kinobeads. The depletion can be measured by the ratio of the amount of protein captured in two consecutive pulldowns of the same DMSO control lysate. In this study, correction factors were determined in separate experiments using the same lysate mixture and the same bead batch. Correction factors were set to the median of all correction factors. Targets of kinase inhibitors were annotated using the previously published random forest classifier. A training data set was annotated manually. […]

Another test concerns FLT3. Nature of the test: Kinobeads two-dose competition binding: FLT3. Details: species or system human.
The mark [1] stands for this setting: selectivity score from Kinobeads two-dose data.

SMILES strings stand for the structures. Like-named read-outs stand apart in the source and are kept apart here.

T3 sequence (Q2M2I8 whole entry): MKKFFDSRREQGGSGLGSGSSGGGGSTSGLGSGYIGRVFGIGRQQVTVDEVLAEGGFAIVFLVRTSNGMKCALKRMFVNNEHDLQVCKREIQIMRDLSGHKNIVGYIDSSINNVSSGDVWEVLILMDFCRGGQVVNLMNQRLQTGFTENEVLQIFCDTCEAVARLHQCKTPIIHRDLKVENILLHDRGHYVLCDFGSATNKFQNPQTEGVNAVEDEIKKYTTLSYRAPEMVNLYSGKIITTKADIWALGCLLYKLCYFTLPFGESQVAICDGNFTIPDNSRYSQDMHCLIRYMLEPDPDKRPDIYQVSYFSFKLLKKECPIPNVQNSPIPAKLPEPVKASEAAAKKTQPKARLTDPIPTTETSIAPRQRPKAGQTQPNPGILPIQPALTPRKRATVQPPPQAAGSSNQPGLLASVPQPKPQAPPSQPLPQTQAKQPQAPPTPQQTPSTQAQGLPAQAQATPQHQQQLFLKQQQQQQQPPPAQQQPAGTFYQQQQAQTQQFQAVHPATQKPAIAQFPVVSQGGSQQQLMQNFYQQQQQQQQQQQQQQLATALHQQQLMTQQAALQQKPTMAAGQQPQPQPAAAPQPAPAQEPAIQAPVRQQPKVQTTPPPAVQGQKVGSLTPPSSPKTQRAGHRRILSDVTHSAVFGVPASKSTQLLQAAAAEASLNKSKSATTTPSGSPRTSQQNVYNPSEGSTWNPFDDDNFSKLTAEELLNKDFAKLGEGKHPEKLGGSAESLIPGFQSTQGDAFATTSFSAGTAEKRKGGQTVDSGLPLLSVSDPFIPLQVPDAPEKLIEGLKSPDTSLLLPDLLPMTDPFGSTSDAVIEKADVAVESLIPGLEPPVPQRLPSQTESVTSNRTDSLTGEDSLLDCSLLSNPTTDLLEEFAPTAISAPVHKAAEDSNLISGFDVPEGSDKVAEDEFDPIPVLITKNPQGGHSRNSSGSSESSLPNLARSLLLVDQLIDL
T1 sequence (P43250 whole entry): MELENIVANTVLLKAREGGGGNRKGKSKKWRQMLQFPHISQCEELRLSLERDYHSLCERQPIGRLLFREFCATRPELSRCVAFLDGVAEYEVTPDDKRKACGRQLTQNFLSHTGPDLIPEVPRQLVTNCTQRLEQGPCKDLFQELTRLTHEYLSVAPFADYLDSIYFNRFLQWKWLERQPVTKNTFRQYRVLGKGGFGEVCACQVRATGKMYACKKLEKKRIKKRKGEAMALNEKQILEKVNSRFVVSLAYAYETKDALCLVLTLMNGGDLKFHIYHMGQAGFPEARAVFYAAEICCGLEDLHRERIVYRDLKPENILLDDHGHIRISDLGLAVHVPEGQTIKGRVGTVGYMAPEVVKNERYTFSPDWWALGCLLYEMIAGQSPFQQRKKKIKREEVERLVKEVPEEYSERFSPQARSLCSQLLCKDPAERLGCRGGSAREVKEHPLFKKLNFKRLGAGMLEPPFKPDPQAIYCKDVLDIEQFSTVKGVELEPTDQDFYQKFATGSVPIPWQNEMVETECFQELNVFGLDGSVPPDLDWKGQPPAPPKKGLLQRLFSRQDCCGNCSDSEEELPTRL

With `c1ccc(-c2cnc3nccnn23)cc1` [AH20685XX], on GRK6, the potency estimated from few doses was > 1000 nM.
In the case of `CCn1cc(-c2ccnc3[nH]c(-c4cccc(CN(C)C)c4)cc23)c(-c2ccc(NC(=O)N(C)C)cc2)n1` [GSK1070916], the CATDS on ACOX1, on AAK1, on ABL1, on ABL2 and at ACAD11 was 0 throughout. In addition, the potency estimated from few doses at ABCD3 was > 1000 nM.
On to `COc1ccc(Nc2nccc(N3CCC(NC(=O)Nc4ccc5c(c4)OCO5)C3)n2)cc1` (centres unmarked) [GSK1379745A], for which the CATDS on ACOX1, at AAK1, on ABL1, on ABL2 and at ACAD11 was 0 in each case. For the same molecule, at ABCD3, the potency estimated from few doses was > 1000 nM.
Consider `CCc1nc(-c2cccc(N(C)S(=O)(=O)c3ccccc3)c2)c(-c2ccnc(Nc3ccc(N4CCN(C(C)=O)CC4)nc3)n2)s1` [GSK1645895A], for which the CATDS at ACOX1, at AAK1, at ABL1, at ABL2 and on ACAD11 was 0 throughout. The potency estimated from few doses at ABCD3 is > 1000 nM.
Take `Cc1cc(-c2ccco2)cc(C)c1/C=C/c1cncc(-c2nn[nH]n2)c1` [GW458344A]: at EPHB6 (read-out: apparent Kd), the potency estimated from few doses was 401 nM. The CATDS at EPHB6 (target EPHB6, concentration and target dependent selectivity at the apparent Kd) came to 1.000.
In the case of `Cc1cc(-c2ccccn2)cc(C)c1/C=C/c1cncc(-c2nn[nH]n2)c1` [GW459057A], the potency estimated from few doses on EPHB6 (read-out: Kdapp EPHB6) was 162 nM. In addition, the CATDSEPHB6 at EPHB6 (setting [1]) is 0.83.
On to `O=C1Nc2ccc(F)cc2/C1=C/c1ccc[nH]1` [RO0272148-000], for which the potency estimated from few doses with FLT3 (Kinobeads two-dose (100 nM and 1 µM), mixed cell lysate, read-out: Kdapp FLT3) was 99 nM; at ACOX1 (Kinobeads two-dose, mixed cell lysate, read-out: Kdapp ACOX1), > 1000 nM. In the test with FLT3 (setting [1]), this molecule yielded a CATDSFLT3 of 0.87.
